Molecules are shown by their SMILES. A value given as a limit tells only on which side of the number the result lay.

A word on the melting point: it is the temperature of the solid-liquid transition. In the case of `CC(C)n1nc(-c2c(OCc3ccccc3)nc(N)nc2-c2ccccc2)ccc1=O`, the melting point lay in the range of 162 to 163 °C. The figure for `O=c1cc(O)cnn1Cc1ccccc1` is 48 to 55 °C; for `COC(c1sc2ccc(Cl)cc2c1Cl)C(C)NC(=O)c1cn(C)nc1C(F)F` (stereo not given) it is 128 to 132 °C.

In turn, `Cc1ccc(Nc2ncccc2N)c(C)c1[N+](=O)[O-]` showed a melting point of 173 to 175 °C.

`CC(C)c1nn(-c2ccccc2)c(-c2ccc(F)cc2)c1CCC=O` gave a melting point of 86 to 88 °C. To `O=S(=O)(c1ccc(Br)s1)N(CCO)CCO` belongs 70 °C; to `Cc1nc2nc(S(=O)(=O)Cl)nn2cc1Cl`, 99 to 101 °C; to `N#Cc1ccc(-c2cn(-c3ccc(C#N)cc3)c(Cc3ccccc3)n2)cc1`, 168 to 188 °C. The molecule `CCCCCOc1ccc(CCOc2ccc(/C=C(\OCC)C(=O)O)cc2OCCCC)cc1Cl` registered a melting point of 95 °C. Molecule `NC(=O)COc1cccc(CCNS(=O)(=O)c2ccc(Cl)cc2)c1` gave a melting point of 113 °C.

`COC(=O)[C@@H]1[C@@H](O[Si](C)(C)C(C)(C)C)CCN1C(=O)Nc1ccc(C#N)c(Cl)c1C`: the melting point was in the range of 123 to 125 °C. To `Clc1ccc2[nH]c3c(c2c1)CN(CCCCc1ccncc1)CC3` belongs 227 to 228 °C; to `N#CCc1nc(-c2ccc(Cl)cc2)sc1-c1ccccc1`, 118 to 120 °C. To `CN1CCN(c2ccc(C(=O)O)cc2S(=O)(=O)Nc2ccccc2)CC1` belongs 252 to 253 °C; to `O=c1c2c[nH]c3ccccc3c-2nn1-c1ccccc1`, 326 to 328 °C. The figure for `COc1c2oc(C)cc2cc2c(C)cc(=O)oc12` is 154 to 155 °C. With `O=C(Nc1cccc2c1C(=O)c1c-2n[nH]c1-c1ccc(N2CCNCC2)cc1)NN1CCN(CCO)CC1`, the melting point was 279 °C. In turn, `O=C(Cc1ccc(O)cc1)c1ccc(O)cc1O` registered a melting point of 186 °C. `CC(C)(C)OC(=O)N1CCC2(CC1)CC(c1ccc(C#N)cc1)=NO2`: the melting point is 169 to 171 °C. In turn, `CC(COc1ccccc1)NC(=Nc1cccnc1)NC#N` (stereo not given) returned a melting point of 130 to 133 °C. Turning to `COc1cc(C(=O)N2CCC(CCN3CCC(C(=O)c4nc5ccccc5n4Cc4ccc(F)cc4)CC3)(c3ccc(C(F)(F)F)cc3)C2)cc(OC)c1OC` (stereo not given), the melting point was in the range of 55 to 57 °C. To `CCOC(=O)C(=O)c1cn(CCN(C)C)c2ccccc12` belongs 71 to 72 °C; to `CNc1cc([N+](=O)[O-])cc([N+](=O)[O-])c1`, 153 to 154 °C. In turn, `Cc1cnc2c([N+](=O)[O-])ccc(Cl)c2c1Cl` registered a melting point of 136 to 138 °C.

In turn, `CC1(C)OC(=O)Nc2ccc(-c3coc(C=O)c3)cc21` displayed a melting point of 262 to 263 °C. In turn, `CC(=O)N1N=C(c2ccc(N)c(C)c2)c2cc3c(cc2C[C@H]1C)OCO3` displayed a melting point of 123 to 130 °C. With `COc1cc2cnnc(N3CCC(CCN(C)C(=O)Nc4cccnc4)CC3)c2cc1OC`, the melting point fell in the range of 200 to 204 °C. Molecule `CN(C)S(=O)(=O)CCCOc1ccc2ncnn2n1` came in with a melting point of 151 to 153 °C.

In turn, `CSc1nc2ccnn2c(O)c1C#N` came in with a melting point above 250 °C. The figure for `COc1ccc(O)c2[nH]c(C)c(C)c12` is 159 °C. `O=C(O)/C=C\C=C(c1ccccc1F)c1ccccc1F` came in with a melting point of 147 to 148 °C. `Cc1cccc(C)c1NC(=O)NO`: the melting point is 192 to 193 °C.

As for `COCOc1cc(OC)ccc1Br`, the melting point was in the range of 40 to 42 °C. To `CSc1ccc(-c2ccc(=O)[nH]c2C)cc1` belongs 211 to 212 °C. In turn, `C=CCC(C)(C)C(O)C(c1cccc(Cl)c1)n1ccnc1` (stereo not given) returned a melting point of 95 °C. The figure for `Cc1cc(COc2nn(Cc3ccccc3)cc2C(=O)O)ccc1OCc1nc(-c2ccco2)oc1C` is 176 to 177 °C; for `COc1ccnc(CSc2nc3cscc3n2C(=O)OCc2ccccc2)c1` it is 102 to 104 °C; for `COC(=O)C1=Cc2cccc(C3CCN(S(=O)(=O)c4ccc(C)cc4)CC3)c2CCC1` it is 169 to 173 °C. Regarding `CC(C)(C)C(=O)Oc1ccccc1C(=O)c1ccccc1OC(=O)C(C)(C)C`, the melting point was in the range of 106 to 108 °C. Molecule `Oc1ccc(Br)cc1Cc1ncc[nH]1` returned a melting point of 163 to 169 °C. The figure for `CCS(=O)(=O)N(C)C1c2cc(F)c(Cl)cc2OC(C)(C)C1O` (stereo not given) is 188 to 190 °C; for `NCC1COc2cc(Cl)cc(-c3ccc(Cl)cc3C(F)(F)F)c2N1` (stereo not given) it is 95 °C; for `O=C(O)c1cc(Cl)ccc1OCc1ccccc1` it is 113 to 115 °C. The molecule `CCOC(=O)c1c[nH]c2cccc(O)c12` came in with a melting point of 151 to 153 °C. To `N#Cc1c(Cl)cc(Cn2nnc(C(N)=O)c2N)cc1Cl` belongs 238 to 240 °C; to `CCOC(=O)c1cc2c(nc1C(=O)OCC)CCSC2`, 65 to 66 °C; to `ClCc1nnc2n1-c1sc(Cl)cc1C(c1ccccc1Cl)=NC2`, 101 to 103 °C. The figure for `Cn1c(=O)ccc2ccc(N)cc21` is 268 to 269 °C. The figure for `COCCN1CCc2cc(OC)c(O)cc2C1C1(c2ccccc2Cl)CC1` (stereo not given) is 115 to 120 °C; for `COC(COC(=O)C1=C(C)NC2=C(C(=O)CN(Cc3ccccc3)C2)C1c1c(F)c(F)c(F)c(F)c1F)c1ccccc1` (stereo not given) it is 220 to 222 °C; for `CC(=O)OCC1OC(n2c(Cl)nc3c(Br)c(Br)ccc32)C(OC(C)=O)C1OC(C)=O` (stereo not given) it is 129 to 130 °C. For the molecule `CCn1cc(C(=O)O)c(=O)c2cnc(N3CCN(Cc4ccc([N+](=O)[O-])cc4)CC3)nc21`, the melting point is 259 to 261 °C. To `CCOc1ccc(C(=O)C2=C(O)C(=O)N(c3ccc(C)nn3)C2c2ccc(OC(F)(F)F)cc2)cc1` (stereo not given) belongs 255 to 257 °C; to `Cc1cccc(NC(=O)c2cc(C#N)cc(C)n2)n1`, 244 °C. For the molecule `COc1nc2cc(Cl)c(Cl)c(-n3c(CO)nnc3-c3cccnc3)c2nc1OC`, the melting point lay in the range of 209 to 210 °C. In the case of `CCS(=O)c1ccc(-c2coc3ccc(-c4nnc(C)o4)nc23)cc1` (stereo not given), the melting point fell in the range of 207 to 208 °C. The figure for `N#Cc1cnn2c(-c3cccc([N+](=O)[O-])c3)ccnc12` is 244 to 246 °C; for `Cn1nnnc1SCc1c(S(C)(=O)=O)ccc(C(=O)C2=C(Sc3ccccc3)CCCC2=O)c1Cl` it is 76 to 87 °C; for `COc1ccc(Cl)c2c1CN(Nc1ccncc1)C2` it is 229 to 230 °C. The figure for `O=C(O)c1cccc(Cl)c1C[PH](=O)CO` (stereo not given) is 219 to 220 °C; for `COc1ccc2[nH]c3c(c2c1)C[C@@]1(C)C(=O)N(CCn2ccnc2)C(=O)N1[C@@H]3c1cccc(O)c1` (racemic) it is 321 to 324 °C.

Take `Nc1cc(=O)n(Cc2cc(Cl)ccc2F)[nH]1`: the melting point is 160 °C. The figure for `COc1cc(C=CC(=O)Nc2cnc3c(C)cc(C)cc3c2-c2ccc(F)cc2)cc(OC)c1OC(C)=O` is 260 to 261 °C; for `CCCNC(=O)c1nc(-c2ccccc2)c(-c2ccc(=O)n(C)n2)s1` it is 108 to 109 °C.

The molecule `NC(=O)c1c(C(=O)O)cnn1-c1ccc(Cl)cc1Cl` came in with a melting point of 239 to 240 °C. `Nc1ccc(CP2(=O)OCCO2)cc1` had a melting point of 183 to 184 °C. The figure for `CC(C)n1nc(-c2sc(NC(=O)C3CCCCC3)nc2-c2ccccc2)ccc1=O` is 234 to 236 °C. To `Cc1cn(-c2nc(C3=Nc4ccc(-c5ccccc5F)cc4NC(=O)C3)cs2)cn1` belongs 229 °C.

With `COc1ccc(-c2nn(C(C)C)c3c(C(F)(F)F)cccc23)c(OC)c1`, the melting point lay in the range of 128 to 129 °C. To `O=C(O)c1ccc(CCCC2SCC(=O)N2CCC2(O)CCCCC2)cc1` (stereo not given) belongs 147 to 148 °C; to `CN(CCc1ccc(Nc2ncc3c(n2)-c2ccccc2C(c2cccc(Br)c2)C3)cc1)CCc1ccccn1` (stereo not given), 75 to 77 °C; to `O=C1Cc2c(cc3ccccc3c2Cl)C(c2ccccc2Cl)N1` (stereo not given), 252 to 254 °C. Regarding `CC1(C)CCc2c1cc(C=O)c(O)c2Br`, the melting point lay in the range of 77.5 to 78.5 °C. The figure for `O=C(O)c1ccc(C=Cc2csc3ccccc23)s1` is 196 to 197 °C; for `CCCCCCCCCCCCCCS(=O)(=O)NC(=O)Nc1c(C(C)C)cccc1C(C)C` it is 135 to 137 °C. To `Cc1c(N)nc(Cl)nc1Cl` belongs 193 to 194 °C; to `CCn1nc(C(F)(F)F)c(CS(=O)(=O)C2=NOC(C)(CCl)C2)c1F` (stereo not given), 73 to 75 °C.

The molecule `CN1CCN(c2nc(-c3ccccc3)c(-c3ccnc(S(C)=O)n3)s2)CC1` (stereo not given) registered a melting point of 166 to 169 °C. To `Cc1cc(C)cc(Nc2nccc(-n3ccnc3-c3ccccc3)n2)c1` belongs 183 °C; to `CC(=O)Nc1cccnc1Cl`, 81 to 83 °C. To `CC(C)(C)NC(=O)c1ccccc1O` belongs 78 to 79.5 °C; to `CCNc1nc(C)c(-c2ccnc(Nc3cccc(S(=O)(=O)NCc4ccccc4)c3)n2)s1`, 204 to 205 °C; to `COC(=O)C(C(C)C)S(=O)(=O)Nc1nc(OC)cc(OC)n1` (stereo not given), 94 to 95 °C. The figure for `C=C1N(C2CCCCC2)C(=O)OC12CCN(CCC=C(c1ccc(F)cc1)c1ccc(F)cc1)CC2` is 145 to 146 °C. `CCCc1c(OCCCc2ccc(OC)c(OC)c2)ccc(C(=O)O)c1O`: the melting point lay in the range of 104 to 110 °C. To `OC1CSC(Oc2cccc3ocnc23)C(O)C1O` (stereo not given) belongs 172 °C; to `Cc1ccc(S(=O)(=O)N2CCCC2c2ccc(C(F)(F)F)cc2)cc1` (racemic), 99 °C. To `O=C1C2=C(C(=O)c3ccccc31)C(=O)C1CC(Cl)=CCC1C2=O` (stereo not given) belongs 221 to 222 °C; to `Cc1ccc(S(=O)(=O)N2CC(NC(=O)c3ccccc3)CC2C(=O)O)cc1` (stereo not given), 120 to 125 °C; to `CCCC/C(=C\C(=O)O)c1cnc(CCCC)n1Cc1ccccc1Cl`, 131 to 132 °C.

Values taken from a melting point compilation (Tetko et al.; mined from patent text by program, amines drawn as free bases though some values may be those of a salt).
